According to patent US20240277698A1, “METHODS OF USING ALDOSTERONE SYNTHASE INHIBITORS” (CINCOR PHARMA, INC., priority 2021, published 2024):

Target: T1, aldosterone synthase (Homo sapiens, UniProt P19099)
T1 construct: synthesized in the adrenal cortex by aldosterone synthase; endogenous in cells; host or cells: adrenal cortex of healthy human subjects (in vivo, oral dosing)
T1 sequence (P19099 25-503): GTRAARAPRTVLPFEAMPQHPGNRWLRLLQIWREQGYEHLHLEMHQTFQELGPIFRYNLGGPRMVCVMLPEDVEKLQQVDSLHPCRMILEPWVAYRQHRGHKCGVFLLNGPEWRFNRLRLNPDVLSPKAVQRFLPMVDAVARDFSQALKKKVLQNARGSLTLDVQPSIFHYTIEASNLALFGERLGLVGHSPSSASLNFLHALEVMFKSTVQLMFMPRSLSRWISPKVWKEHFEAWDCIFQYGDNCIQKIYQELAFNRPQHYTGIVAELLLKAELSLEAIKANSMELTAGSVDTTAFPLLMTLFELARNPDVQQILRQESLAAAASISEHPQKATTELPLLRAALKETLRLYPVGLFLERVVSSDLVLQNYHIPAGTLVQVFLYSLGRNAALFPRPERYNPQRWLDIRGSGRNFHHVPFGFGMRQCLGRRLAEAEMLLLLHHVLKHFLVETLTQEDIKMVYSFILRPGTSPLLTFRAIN
Experiment: MAD study: plasma aldosterone and precursors (18-hydroxycorticosterone, corticosterone, 11-deoxycorticosterone)
Type: in vivo
Conditions: mean; for Plasma 11-deoxycorticosterone, Day −1 predose / Plasma 18-hydroxycorticosterone, Day −1 predose / Plasma aldosterone, Day −1 predose / Plasma corticosterone, Day −1 predose: baseline
From the text: For each subject, the study consisted of: • A screening period of up to 28 days; • A 5-day inpatient run-in period during which subjects adhered to a controlled, standardized diet and underwent baseline PD assessments; • A 15-day inpatient treatment period, during which subjects received (R)-compound 1 or placebo once daily for 10 days while adhering to a controlled, standardized diet, followed by PK and PD sampling over an additional 5 days; and • A follow-up visit 3 days (1 day) after discharge from the clinical unit. • A cortisol stimulation test (Cohorts 1 and 2 only) and standing aldosterone assessment (all cohorts) were performed on Days 1 and 10. Serial blood samples for PK and PD were obtained prior to and at specified time points over 24 hours after dosing on Day 1 as well as prior to and at specified time points over 120 hours after dosing on Day 10. In addition, blood samples for PK were collected prior to dosing on Days 8 and 9. Urine for PK and PD measurements was collected over 24 hours starting just prior to dosing on Day 1 as well as over 120 hours starting just prior to dosing on Day 10. […]

SMILES: CCC(=O)N[C@@H]1CCCc2c(-c3ccc4c(c3)CCC(=O)N4C)cncc21 [(R)-Compound 1, (R)—N-(4-(1-methyl-2-oxo-1,2,3,4-tetrahydroquinolin-6-yl)-5,6,7,8-tetrahydroisoquinolin-8-yl)propionamide]
- Plasma 11-deoxycorticosterone, Day −1 predose (0.5 mg QD, normal salt diet): 52.625 pg/mL
- Plasma 18-hydroxycorticosterone, Day −1 predose (0.5 mg QD, normal salt diet): 955.5 pg/mL
- Plasma aldosterone, Day −1 predose (0.5 mg QD, normal salt diet): 131.588 pg/mL
- Plasma corticosterone, Day −1 predose (0.5 mg QD, normal salt diet): 4302.5 pg/mL
- Plasma 11-deoxycorticosterone, Day 1, 12 hours postdose (0.5 mg QD, normal salt diet): 35.900 pg/mL
- Plasma 11-deoxycorticosterone, Day 1, predose (0.5 mg QD, normal salt diet): 50.938 pg/mL
- Plasma 11-deoxycorticosterone, Day 2, predose (0.5 mg QD, normal salt diet): 72.950 pg/mL
- Plasma 11-deoxycorticosterone, Day 10, 12 hours postdose (0.5 mg QD, normal salt diet): 70.813 pg/mL
- Plasma 11-deoxycorticosterone, Day 10, 24 hours postdose (0.5 mg QD, normal salt diet): 115.663 pg/mL
- Plasma 11-deoxycorticosterone, Day 10, predose (0.5 mg QD, normal salt diet): 112.375 pg/mL
- Plasma 11-deoxycorticosterone, Percent change from Day −1 to Day 10, predose (0.5 mg QD, normal salt diet): 161.115%
- Plasma 18-hydroxycorticosterone, Day 1, 12 hours postdose (0.5 mg QD, normal salt diet): 310.1 pg/mL
- Plasma 18-hydroxycorticosterone, Day 1, predose (0.5 mg QD, normal salt diet): 943.1 pg/mL
- Plasma 18-hydroxycorticosterone, Day 2, predose (0.5 mg QD, normal salt diet): 819.6 pg/mL
- Plasma 18-hydroxycorticosterone, Day 10, 12 hours postdose (0.5 mg QD, normal salt diet): 326.5 pg/mL
- Plasma 18-hydroxycorticosterone, Day 10, 24 hours postdose (0.5 mg QD, normal salt diet): 1016.4 pg/mL
- Plasma 18-hydroxycorticosterone, Day 10, predose (0.5 mg QD, normal salt diet): 983.1 pg/mL
- Plasma 18-hydroxycorticosterone, Percent change from Day −1 to Day 10 (0.5 mg QD, normal salt diet): 5.2%
- Plasma aldosterone, Day 1, 12 hours postdose (0.5 mg QD, normal salt diet): 56.250 pg/mL
- Plasma aldosterone, Day 1, predose (0.5 mg QD, normal salt diet): 133.013 pg/mL
- Plasma aldosterone, Day 2, predose (0.5 mg QD, normal salt diet): 80.100 pg/mL
- Plasma aldosterone, Day 10, 12 hours postdose (0.5 mg QD, normal salt diet): 83.625 pg/mL
- Plasma aldosterone, Day 10, 24 hours postdose (0.5 mg QD, normal salt diet): 143.338 pg/mL
- Plasma aldosterone, Day 10, predose (0.5 mg QD, normal salt diet): 152.875 pg/mL
- Plasma aldosterone, Percent change from Day −1 to Day 10, predose (0.5 mg QD, normal salt diet): 28.841%
- Plasma corticosterone, Day 1, 12 hours postdose (0.5 mg QD, normal salt diet): 695.6 pg/mL
- Plasma corticosterone, Day 1, predose (0.5 mg QD, normal salt diet): 3170.0 pg/mL
- Plasma corticosterone, Day 2, predose (0.5 mg QD, normal salt diet): 4490.0 pg/mL
- Plasma corticosterone, Day 10, 12 hours postdose (0.5 mg QD, normal salt diet): 1211.4 pg/mL
- Plasma corticosterone, Day 10, 24 hours postdose (0.5 mg QD, normal salt diet): 5923.8 pg/mL
- Plasma corticosterone, Day 10, predose (0.5 mg QD, normal salt diet): 4187.5 pg/mL
- Plasma corticosterone, Percent change from Day −1 to Day 10, predose (0.5 mg QD, normal salt diet): 73.0%
- Plasma 11-deoxycorticosterone, Day −1 predose (1.5 mg QD, normal salt diet): 43.489 pg/mL
- Plasma 18-hydroxycorticosterone, Day −1 predose (1.5 mg QD, normal salt diet): 1027.4 pg/mL
- Plasma aldosterone, Day −1 predose (1.5 mg QD, normal salt diet): 143.100 pg/mL
- Plasma corticosterone, Day −1 predose (1.5 mg QD, normal salt diet): 3748.3 pg/mL
- Plasma 11-deoxycorticosterone, Day 1, 12 hours postdose (1.5 mg QD, normal salt diet): 19.656 pg/mL
- Plasma 11-deoxycorticosterone, Day 1, predose (1.5 mg QD, normal salt diet): 44.711 pg/mL
- Plasma 11-deoxycorticosterone, Day 2, predose (1.5 mg QD, normal salt diet): 53.344 pg/mL
- Plasma 11-deoxycorticosterone, Day 10, 12 hours postdose (1.5 mg QD, normal salt diet): 46.733 pg/mL
- Plasma 11-deoxycorticosterone, Day 10, 24 hours postdose (1.5 mg QD, normal salt diet): 84.767 pg/mL
- Plasma 11-deoxycorticosterone, Day 10, predose (1.5 mg QD, normal salt diet): 73.322 pg/mL
- Plasma 11-deoxycorticosterone, Percent change from Day −1 to Day 10, predose (1.5 mg QD, normal salt diet): 104.945%
- Plasma 18-hydroxycorticosterone, Day 1, 12 hours postdose (1.5 mg QD, normal salt diet): 225.6 pg/mL
- Plasma 18-hydroxycorticosterone, Day 1, predose (1.5 mg QD, normal salt diet): 991.7 pg/mL
- Plasma 18-hydroxycorticosterone, Day 2, predose (1.5 mg QD, normal salt diet): 829.3 pg/mL
- Plasma 18-hydroxycorticosterone, Day 10, 12 hours postdose (1.5 mg QD, normal salt diet): 318.4 pg/mL
- Plasma 18-hydroxycorticosterone, Day 10, 24 hours postdose (1.5 mg QD, normal salt diet): 1000.1 pg/mL
- Plasma 18-hydroxycorticosterone, Day 10, predose (1.5 mg QD, normal salt diet): 1047.9 pg/mL
- Plasma 18-hydroxycorticosterone, Percent change from Day −1 to Day 10 (1.5 mg QD, normal salt diet): 6.1%
- Plasma aldosterone, Day 1, 12 hours postdose (1.5 mg QD, normal salt diet): 27.111 pg/mL
- Plasma aldosterone, Day 1, predose (1.5 mg QD, normal salt diet): 110.567 pg/mL
- Plasma aldosterone, Day 2, predose (1.5 mg QD, normal salt diet): 52.933 pg/mL
- Plasma aldosterone, Day 10, 12 hours postdose (1.5 mg QD, normal salt diet): 41.300 pg/mL
- Plasma aldosterone, Day 10, 24 hours postdose (1.5 mg QD, normal salt diet): 92.533 pg/mL
- Plasma aldosterone, Day 10, predose (1.5 mg QD, normal salt diet): 82.144 pg/mL
- Plasma aldosterone, Percent change from Day −1 to Day 10, predose (1.5 mg QD, normal salt diet): −37.405%
- Plasma corticosterone, Day 1, 12 hours postdose (1.5 mg QD, normal salt diet): 635.2 pg/mL
- Plasma corticosterone, Day 1, predose (1.5 mg QD, normal salt diet): 3988.3 pg/mL
- Plasma corticosterone, Day 2, predose (1.5 mg QD, normal salt diet): 4413.3 pg/mL
- Plasma corticosterone, Day 10, 12 hours postdose (1.5 mg QD, normal salt diet): 1417.0 pg/mL
- Plasma corticosterone, Day 10, 24 hours postdose (1.5 mg QD, normal salt diet): 6065.6 pg/mL
- Plasma corticosterone, Day 10, predose (1.5 mg QD, normal salt diet): 5677.8 pg/mL
- Plasma corticosterone, Percent change from Day −1 to Day 10, predose (1.5 mg QD, normal salt diet): 115.1%
- Plasma 11-deoxycorticosterone, Day −1 predose (2.5 mg QD, low salt diet): 72.688 pg/mL
- Plasma 18-hydroxycorticosterone, Day −1 predose (2.5 mg QD, low salt diet): 1269.6 pg/mL
- Plasma aldosterone, Day −1 predose (2.5 mg QD, low salt diet): 272.125 pg/mL
- Plasma corticosterone, Day −1 predose (2.5 mg QD, low salt diet): 6383.8 pg/mL
- Plasma 11-deoxycorticosterone, Day 1, 12 hours postdose (2.5 mg QD, low salt diet): 133.300 pg/mL
- Plasma 11-deoxycorticosterone, Day 1, predose (2.5 mg QD, low salt diet): 83.825 pg/mL
- Plasma 11-deoxycorticosterone, Day 10, 12 hours postdose (2.5 mg QD, low salt diet): 204.250 pg/mL
- Plasma 11-deoxycorticosterone, Day 10, 24 hours postdose (2.5 mg QD, low salt diet): 217.975 pg/mL
- Plasma 11-deoxycorticosterone, Day 10, predose (2.5 mg QD, low salt diet): 164.725 pg/mL
- Plasma 11-deoxycorticosterone, Percent change from Day −1 to Day 10, predose (2.5 mg QD, low salt diet): 412.560%
- Plasma 18-hydroxycorticosterone, Day 1, 12 hours postdose (2.5 mg QD, low salt diet): 230.4 pg/mL
- Plasma 18-hydroxycorticosterone, Day 1, predose (2.5 mg QD, low salt diet): 839.6 pg/mL
- Plasma 18-hydroxycorticosterone, Day 10, 12 hours postdose (2.5 mg QD, low salt diet): 339.1 pg/mL
